From ChEMBL document CHEMBL1131036, “Structure-based design, synthesis, and biological evaluation of irreversible human rhinovirus 3C protease inhibitors. 1. Michael acceptor structure-activity studies” (J Med Chem, 1998)

Legend:
HeLa [1] = assay: Formazan production in HRV-14 virus infected cells; format: functional, cell-based; conditions: Homo sapiens
HeLa [2] = assay: Concentration of compound that decreased the percentage of formazan production in treated HRV-14 virus infected cells to that produced in uninfected cells; format: functional; conditions: Homo sapiens
[3] = molecular target: T1, Human rhinovirus A protease (Human rhinovirus sp.) (UniProt Q4U254); assay: Catalytic rate constant (Kobs/[I]) evaluated against human rhinovirus (HRV) serotype 14 3C Protease (3CP); conditions: Human rhinovirus B (HRV-14)
T1 sequence (whole entry): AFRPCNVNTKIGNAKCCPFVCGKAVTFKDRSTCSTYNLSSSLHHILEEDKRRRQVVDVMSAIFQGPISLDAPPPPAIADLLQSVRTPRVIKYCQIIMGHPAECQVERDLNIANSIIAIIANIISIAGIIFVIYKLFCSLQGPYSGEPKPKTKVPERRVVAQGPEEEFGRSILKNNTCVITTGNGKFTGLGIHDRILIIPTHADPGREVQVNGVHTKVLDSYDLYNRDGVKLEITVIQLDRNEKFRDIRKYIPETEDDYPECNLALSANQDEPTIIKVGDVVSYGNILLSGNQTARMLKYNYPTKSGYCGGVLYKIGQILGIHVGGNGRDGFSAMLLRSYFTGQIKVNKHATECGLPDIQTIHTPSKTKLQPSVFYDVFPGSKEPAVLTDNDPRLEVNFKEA

Row | SMILES | EC50 (HeLa [1]) [µM] | CC50 (HeLa [2]) [µM] | K obs / 1 [3] [M⁻¹ s⁻¹]
1 | CC(C)C[C@H](NC(=O)OCc1ccccc1)C(=O)N[C@@H](Cc1ccccc1)C(=O)N[C@H](/C=C/C(=O)N1CCc2cccc(Cl)c21)CCC(N)=O | 56 | > 320 | 5400
2 | CC(C)C[C@H](NC(=O)OCc1ccccc1)C(=O)N[C@@H](Cc1ccccc1)C(=O)N[C@H](/C=C/C(=O)OCC(C)(C)C)CCC(N)=O | 0.5 | > 100 | 9800
3 | CC(C)C[C@H](NC(=O)OCc1ccccc1)C(=O)N[C@@H](Cc1ccccc1)C(=O)N[C@H](/C=C/S(C)(=O)=O)CCC(N)=O | > 320 | > 320 | 160
4 | CC(C)C[C@H](NC(=O)OCc1ccccc1)C(=O)N[C@@H](Cc1ccccc1)C(=O)N[C@H](/C=C/C(=O)N(C)O)CCC(N)=O | 42 | 42 | 1800
5 | CSc1cccc2c1N(C(=O)/C=C/[C@H](CCC(N)=O)NC(=O)[C@H](Cc1ccccc1)NC(=O)[C@H](CC(C)C)NC(=O)OCc1ccccc1)CC2 |  |  | 300
6 | CC(C)C[C@H](NC(=O)OCc1ccccc1)C(=O)N[C@@H](Cc1ccccc1)C(=O)N[C@H](/C=C/C(=O)c1ccc([N+](=O)[O-])cc1)CCC(N)=O | 32 | 32 | 310000
7 | CC(C)C[C@H](NC(=O)OCc1ccccc1)C(=O)N[C@@H](Cc1ccccc1)C(=O)N[C@H](/C=C/C(=O)c1ccc(C#N)cc1)CCC(N)=O | 50 | > 320 | 200000
8 | CC(C)C[C@H](NC(=O)OCc1ccccc1)C(=O)N[C@@H](Cc1ccccc1)C(=O)N[C@H](/C=C/C(=O)N1CCCc2ccccc21)CCC(N)=O | 126 | > 320 | 1000
9 | CC(C)C[C@H](NC(=O)OCc1ccccc1)C(=O)N[C@@H](Cc1ccccc1)C(=O)N[C@H](/C=C/C(=O)C(C)(C)C)CCC(N)=O | 1.7 | 5.6 | 15000
10 | COc1ccc2c(c1)CCN2C(=O)/C=C/[C@H](CCC(N)=O)NC(=O)[C@H](Cc1ccccc1)NC(=O)[C@H](CC(C)C)NC(=O)OCc1ccccc1 | > 320 | > 320 | 3400
11 | CC(C)C[C@H](NC(=O)OCc1ccccc1)C(=O)N[C@@H](Cc1ccccc1)C(=O)N[C@H](/C=C/C(=O)N1CCc2cc(F)ccc21)CCC(N)=O | 11 | > 320 | 5400
12 | CC(C)C[C@H](NC(=O)OCc1ccccc1)C(=O)N[C@@H](Cc1ccccc1)C(=O)N[C@H](/C=C/C(=O)OC1CCCC1)CCC(N)=O | 0.56 | > 100 | 14600
13 | CCNC(=O)/C=C/[C@H](CCC(N)=O)NC(=O)[C@H](Cc1ccccc1)NC(=O)[C@H](CC(C)C)NC(=O)OCc1ccccc1 | > 320 | > 320 | 350
14 | CC(C)C[C@H](NC(=O)OCc1ccccc1)C(=O)N[C@@H](Cc1ccccc1)C(=O)N[C@H](/C=C/C(=O)N1CCc2cc(Cl)ccc21)CCC(N)=O | 5.6 | 56 | 450
15 | CCOP(=O)(/C=C/[C@H](CCC(N)=O)NC(=O)[C@H](Cc1ccccc1)NC(=O)[C@H](CC(C)C)NC(=O)OCc1ccccc1)OCC | > 320 | > 320 | 0
16 | CC(C)C[C@H](NC(=O)OCc1ccccc1)C(=O)N[C@@H](Cc1ccccc1)C(=O)N[C@H](/C=C/S(=O)(=O)c1ccccc1)CCC(N)=O | 200 | > 320 | 270
17 | CC(C)C[C@H](NC(=O)OCc1ccccc1)C(=O)N[C@@H](Cc1ccccc1)C(=O)N[C@H](/C=C1\CCCOC1=O)CCC(N)=O | 16 | > 100 | 
18 | CON1CC/C(=C\[C@H](CCC(N)=O)NC(=O)[C@H](Cc2ccccc2)NC(=O)[C@H](CC(C)C)NC(=O)OCc2ccccc2)C1=O | 18 | > 100 | 800
19 | CC(C)C[C@H](NC(=O)OCc1ccccc1)C(=O)N[C@@H](Cc1ccccc1)C(=O)N[C@H](/C=C/C#N)CCC(N)=O | 18 | > 320 | 0
20 | CC(C)C[C@H](NC(=O)OCc1ccccc1)C(=O)N[C@@H](Cc1ccccc1)C(=O)N[C@H](/C=C/C(=O)n1cccc1)CCC(N)=O | 1.4 | 6.3 | 400000
21 | CC(C)C[C@H](NC(=O)OCc1ccccc1)C(=O)N[C@@H](Cc1ccccc1)C(=O)N[C@H](/C=C/c1ccno1)CCC(N)=O | > 320 | > 320 | 600
22 | CO/N=C/C=C/[C@H](CCC(N)=O)NC(=O)[C@H](Cc1ccccc1)NC(=O)[C@H](CC(C)C)NC(=O)OCc1ccccc1 | 100 | > 320 | 0

Row | SMILES | EC50 (HeLa [1]) [µM] | CC50 (HeLa [2]) [µM] | K obs / 1 [3] [M⁻¹ s⁻¹]
23 | CC(C)C[C@H](NC(=O)OCc1ccccc1)C(=O)N[C@@H](Cc1ccccc1)C(=O)N[C@H](/C=C/C(=O)N1CCCO1)CCC(N)=O | 45 | > 320 | 14000
24 | CC(C)C[C@H](NC(=O)OCc1ccccc1)C(=O)N[C@@H](Cc1ccccc1)C(=O)N[C@H](/C=C/C(=O)N1CCCC1)CCC(N)=O | 22 | > 100 | 2100
25 | CC(C)C[C@H](NC(=O)OCc1ccccc1)C(=O)N[C@@H](Cc1ccccc1)C(=O)N[C@H](/C=C/C(=O)N1CCc2cccc(S(C)(=O)=O)c21)CCC(N)=O | > 320 | > 320 | < 1000
26 | COc1ccc(C(=O)/C=C/[C@H](CCC(N)=O)NC(=O)[C@H](Cc2ccccc2)NC(=O)[C@H](CC(C)C)NC(=O)OCc2ccccc2)cc1 | 22 | 100 | 150000
27 | CC(C)C[C@H](NC(=O)OCc1ccccc1)C(=O)N[C@@H](Cc1ccccc1)C(=O)N[C@H](/C=C/C(=O)N1CCCCO1)CCC(N)=O | 16 | 100 | 19000
28 | CC(C)C[C@H](NC(=O)OCc1ccccc1)C(=O)N[C@@H](Cc1ccccc1)C(=O)N[C@H](/C=C/C(=O)OCc1ccccc1)CCC(N)=O | 3.2 | > 100 | 39400
29 | CC(C)C[C@H](NC(=O)OCc1ccccc1)C(=O)N[C@@H](Cc1ccccc1)C(=O)N[C@H](/C=C/C(=O)O)CCC(N)=O | > 100 | > 320 | 30
30 | COC(=O)N1CC/C(=C\[C@H](CCC(N)=O)NC(=O)[C@H](Cc2ccccc2)NC(=O)[C@H](CC(C)C)NC(=O)OCc2ccccc2)C1=O | 28 | > 100 | 8400
31 | CCN(CC)c1ccc(C(=O)/C=C/[C@H](CCC(N)=O)NC(=O)[C@H](Cc2ccccc2)NC(=O)[C@H](CC(C)C)NC(=O)OCc2ccccc2)cc1 | > 25 | 25 | 4500
32 | COC(=O)/C=C\[C@H](CCC(N)=O)NC(=O)[C@H](Cc1ccccc1)NC(=O)[C@H](CC(C)C)NC(=O)OCc1ccccc1 | 3.2 | > 320 | 2400
33 | CC(C)C[C@H](NC(=O)OCc1ccccc1)C(=O)N[C@@H](Cc1ccccc1)C(=O)N[C@H](/C=C/C(=O)Nc1ccccc1)CCC(N)=O | > 320 | > 320 | 200
34 | CC(C)C[C@H](NC(=O)OCc1ccccc1)C(=O)N[C@@H](Cc1ccccc1)C(=O)N[C@H](/C=C/C(=O)c1ccccc1)CCC(N)=O | 4 | 16 | 500000
35 | CC(C)C[C@H](NC(=O)OCc1ccccc1)C(=O)N[C@@H](Cc1ccccc1)C(=O)N[C@H](/C=C/C(=O)n1ccc2ccccc21)CCC(N)=O | 1.8 | 29 | 53000
36 | CC(C)C[C@H](NC(=O)OCc1ccccc1)C(=O)N[C@@H](Cc1ccccc1)C(=O)N[C@H](/C=C/C(=O)N1CCc2ccc(S(=O)(=O)N3CCCC3)cc21)CCC(N)=O | > 320 | > 320 | 22700
37 | CC(C)C[C@H](NC(=O)OCc1ccccc1)C(=O)N[C@@H](Cc1ccccc1)C(=O)N[C@H](/C=C/c1cocn1)CCC(N)=O | > 100 | > 100 | 0
38 | CC(C)C[C@H](NC(=O)OCc1ccccc1)C(=O)N[C@@H](Cc1ccccc1)C(=O)N[C@H](/C=C/C(=O)N1CCc2cc(Br)ccc21)CCC(N)=O | 47 | > 320 | 5800
39 | CC(C)C[C@H](NC(=O)OCc1ccccc1)C(=O)N[C@@H](Cc1ccccc1)C(=O)N[C@H](/C=C/C(=O)N(C)C)CCC(N)=O | 56 | > 100 | 1300
40 | CCOC(=O)/C(F)=C/[C@H](CCC(N)=O)NC(=O)[C@H](Cc1ccccc1)NC(=O)[C@H](CC(C)C)NC(=O)OCc1ccccc1 | > 320 | > 320 | 60
41 | CC(C)C[C@H](NC(=O)OCc1ccccc1)C(=O)N[C@@H](Cc1ccccc1)C(=O)N[C@H](/C=C/c1ccccn1)CCC(N)=O | > 100 | > 100 | 120
42 | CC(C)C[C@H](NC(=O)OCc1ccccc1)C(=O)N[C@@H](Cc1ccccc1)C(=O)N[C@H](/C=C/C(=O)N1CCc2ccc(S(C)(=O)=O)cc21)CCC(N)=O | > 320 | > 320 | 12900
43 | CC(C)C[C@H](NC(=O)OCc1ccccc1)C(=O)N[C@@H](Cc1ccccc1)C(=O)N[C@H](/C=C/C(=O)NC1CCCC1)CCC(N)=O | > 100 | > 320 | 250
44 | CC(C)C[C@H](NC(=O)OCc1ccccc1)C(=O)N[C@@H](Cc1ccccc1)C(=O)N[C@H](/C=C/C(=O)N(C)c1ccccc1)CCC(N)=O | 158 | > 320 | 580
